In the supplement of paper PMC10307832:

Assays:
Test in all cases: relative viability (nuclei count vs DMSO), 5 days (fraction); higher = more cells survive
Pemetrexed + OSI-027 = compound: Nc1nc2[nH]cc(CCc3ccc(C(=O)N[C@@H](CCC(=O)O)C(=O)O)cc3)c2c(=O)[nH]1 [Pemetrexed] + COc1cccc2cc(-c3nc([C@H]4CC[C@H](C(=O)O)CC4)n4ncnc(N)c34)[nH]c12 [OSI-027] (partner 0.5 µM)
Outline: (§1)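 One day after seeding in 1536-well plates, lung cancer cell lines were dosed by pin tool. Dosing was either single-drug or a fixed anchor-drug dose plus five library-drug doses (not always all listed) in √10 steps. After 5 days, nuclei were stained in one fix-and-stain step and counted on 4× images, and relative viability is the nuclei count of treated wells over that of vehicle wells, given as the median of duplicate plates.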

Pemetrexed + Linsitinib = compound: Nc1nc2[nH]cc(CCc3ccc(C(=O)N[C@@H](CCC(=O)O)C(=O)O)cc3)c2c(=O)[nH]1 [Pemetrexed] + C[C@]1(O)C[C@@H](c2nc(-c3ccc4ccc(-c5ccccc5)nc4c3)c3c(N)nccn32)C1 [Linsitinib] (partner 1 µM)
Outline: as §1

Idelalisib + Dasatinib = compound: CC[C@H](Nc1ncnc2[nH]cnc12)c1nc2cccc(F)c2c(=O)n1-c1ccccc1 [Idelalisib] + Cc1nc(Nc2ncc(C(=O)Nc3c(C)cccc3Cl)s2)cc(N2CCN(CCO)CC2)n1 [Dasatinib] (partner 0.075 µM)
Outline: as §1

Cell Line	relative viability (Pemetrexed + OSI-027; first compound 0.002 µM)	relative viability (Pemetrexed + OSI-027; first compound 0.006325 µM)	relative viability (Pemetrexed + OSI-027; first compound 0.02 µM)	relative viability (Pemetrexed + OSI-027; first compound 0.06325 µM)	relative viability (Pemetrexed + OSI-027; first compound 0.2 µM)	relative viability (Pemetrexed + Linsitinib; first compound 0.002 µM)	relative viability (Pemetrexed + Linsitinib; first compound 0.006325 µM)	relative viability (Pemetrexed + Linsitinib; first compound 0.02 µM)	relative viability (Pemetrexed + Linsitinib; first compound 0.06325 µM)	relative viability (Pemetrexed + Linsitinib; first compound 0.2 µM)	relative viability (Idelalisib + Dasatinib; first compound 0.04 µM)	relative viability (Idelalisib + Dasatinib; first compound 0.1265 µM)	relative viability (Idelalisib + Dasatinib; first compound 0.4 µM)	relative viability (Idelalisib + Dasatinib; first compound 1.265 µM)	relative viability (Idelalisib + Dasatinib; first compound 4 µM)
201T	0.748	0.739	0.748	0.617	0.406	1.13	1.01	1.1	1.09	1.01	0.609	0.614	0.476	0.623	0.605
A549	–	–	–	–	–	0.568	0.569	0.645	0.57	0.709	–	–	–	–	–
A-427	0.422	0.431	0.481	0.466	0.402	1.02	1.09	1.08	1.13	1.1	0.783	0.685	0.568	0.704	0.671
ABC-1	0.515	0.359	0.736	0.529	0.512	0.904	0.804	0.828	0.753	0.713	0.537	0.599	0.582	0.681	0.573
BEN	0.318	0.301	0.302	0.296	0.332	0.855	0.84	0.897	0.868	0.731	0.305	0.318	0.32	0.364	0.31
CAL-12T	0.617	0.631	0.819	0.648	0.671	0.776	0.744	0.932	0.996	0.782	0.315	0.478	0.273	0.375	0.305
COR-L23	0.699	0.781	0.799	0.275	0.163	0.839	0.863	1.04	0.294	0.177	0.442	0.42	0.388	0.455	0.417
COR-L 105	0.735	0.638	1.01	0.646	0.619	0.804	0.872	1.05	0.709	1.03	0.363	0.379	0.31	0.354	0.334
Calu-6	–	–	–	–	–	–	0.964	1.08	0.977	0.72	–	–	–	–	–
ChaGo-K-1	0.572	0.59	0.61	0.317	0.23	–	–	–	–	–	0.548	0.516	0.534	0.563	0.585
EBC-1	–	–	–	–	–	0.864	0.73	0.894	0.919	0.605	–	–	–	–	–
EKVX	0.673	0.678	0.693	0.706	0.611	0.957	1.03	1.02	0.953	0.718	0.492	0.549	0.348	0.436	0.341
EMC-BAC-2	0.352	0.338	0.4	0.372	0.363	0.541	0.778	0.794	0.826	0.844	0.319	0.337	0.283	0.321	0.346
EPLC-272H	0.268	0.257	0.343	0.302	0.265	1.06	1.07	1.19	0.959	1.12	0.277	0.293	0.293	0.271	0.291
H3255	0.542	0.55	0.598	0.659	0.585	0.83	0.976	1.04	0.946	0.768	0.442	0.342	0.386	0.391	0.312
HARA	0.407	0.533	0.53	0.487	0.186	0.876	0.969	0.922	0.822	0.292	0.279	0.235	0.174	0.228	0.238
HCC-15	0.592	0.668	0.76	0.501	0.203	0.857	0.773	0.922	0.753	0.518	0.614	0.591	0.52	0.674	0.491
HCC-44	0.489	0.623	0.631	0.484	0.444	0.598	0.625	0.73	0.665	0.536	–	–	–	–	–
HCC-78	0.326	0.354	0.395	0.336	0.293	–	0.384	0.482	0.26	0.18	0.407	0.378	0.311	0.361	0.41
HCC-366	0.485	0.795	1.04	0.922	0.816	0.675	0.513	0.677	0.707	0.567	0.679	0.705	0.433	0.62	0.601
HCC-827	0.663	0.756	0.899	0.764	0.591	0.843	0.946	1.02	0.997	0.846	0.31	0.318	0.357	0.285	0.177
HOP-62	0.728	0.856	0.936	0.825	0.729	0.903	0.788	0.959	0.671	0.922	0.636	0.714	0.547	0.581	0.526
IA-LM	–	–	–	–	–	0.484	0.488	0.784	0.702	0.644	–	–	–	–	–
LC-2-ad	0.606	0.831	0.561	0.28	0.339	0.811	0.83	0.819	0.24	0.188	0.583	0.48	0.424	0.626	0.519
LCLC-97TM1	0.552	0.361	0.61	0.477	0.235	0.151	0.152	0.184	0.133	0.174	0.938	0.846	0.807	0.946	0.88
LCLC-103H	0.409	0.474	0.549	0.463	0.553	1.07	1.03	1.14	1.16	0.992	0.371	0.388	0.393	0.535	0.309

Cell Line	relative viability (Pemetrexed + OSI-027; first compound 0.002 µM)	relative viability (Pemetrexed + OSI-027; first compound 0.006325 µM)	relative viability (Pemetrexed + OSI-027; first compound 0.02 µM)	relative viability (Pemetrexed + OSI-027; first compound 0.06325 µM)	relative viability (Pemetrexed + OSI-027; first compound 0.2 µM)	relative viability (Pemetrexed + Linsitinib; first compound 0.002 µM)	relative viability (Pemetrexed + Linsitinib; first compound 0.006325 µM)	relative viability (Pemetrexed + Linsitinib; first compound 0.02 µM)	relative viability (Pemetrexed + Linsitinib; first compound 0.06325 µM)	relative viability (Pemetrexed + Linsitinib; first compound 0.2 µM)	relative viability (Idelalisib + Dasatinib; first compound 0.04 µM)	relative viability (Idelalisib + Dasatinib; first compound 0.1265 µM)	relative viability (Idelalisib + Dasatinib; first compound 0.4 µM)	relative viability (Idelalisib + Dasatinib; first compound 1.265 µM)	relative viability (Idelalisib + Dasatinib; first compound 4 µM)
LK-2	0.233	0.205	0.228	0.153	0.2	0.339	0.307	0.514	0.448	0.341	0.277	0.294	–	0.273	0.283
LOU-NH91	0.68	0.727	0.789	0.667	0.531	0.888	0.852	0.987	0.688	0.598	0.599	0.561	0.482	0.42	0.542
LU99A	0.334	0.267	0.326	0.292	0.313	0.501	0.496	0.634	0.44	0.345	0.528	0.617	0.428	0.61	0.646
LXF-289	0.775	0.759	0.909	0.76	0.744	0.917	0.994	0.976	0.955	0.931	0.19	0.218	0.135	0.202	0.195
NCI-H23	0.516	0.532	0.623	0.684	0.663	0.602	0.513	0.607	0.549	0.589	0.808	0.828	0.552	–	0.825
NCI-H322M	0.606	0.484	0.536	0.583	0.476	0.967	0.778	1.06	0.938	0.809	0.284	0.246	0.248	0.251	0.263
NCI-H358	0.729	0.751	0.638	0.191	0.106	0.641	0.666	0.514	0.261	0.282	0.167	0.165	0.13	0.143	0.173
NCI-H441	0.63	0.504	0.574	0.431	0.368	0.553	0.572	0.454	0.414	0.269	0.681	0.687	0.585	0.639	0.467
NCI-H460	0.57	0.51	0.824	0.374	0.0473	0.75	0.697	0.782	0.166	0.0543	0.571	0.535	0.405	0.5	0.428
NCI-H520	0.225	0.246	0.321	0.267	0.265	0.946	0.911	0.926	1.09	0.956	0.201	0.158	0.126	0.209	0.147
NCI-H522	0.794	0.65	0.796	0.706	0.676	–	–	–	–	–	1.08	0.814	0.894	0.895	0.791
NCI-H596	0.705	0.691	0.642	0.632	0.414	1.08	0.983	1.04	0.908	0.54	0.586	0.631	0.493	0.575	0.549
NCI-H647	0.467	0.492	0.806	0.744	0.318	–	0.886	1.29	1.08	0.332	0.194	0.203	–	0.173	0.127
NCI-H650	0.536	0.562	0.551	0.507	0.532	0.651	0.983	1.1	0.944	0.839	0.498	0.438	0.432	0.481	0.394
NCI-H661	0.782	0.711	0.767	0.698	0.694	0.632	0.515	0.637	0.505	0.561	1.1	0.969	0.673	1.08	0.673
NCI-H727	0.568	0.668	0.587	0.692	0.752	0.154	0.272	0.218	0.332	0.264	0.461	0.397	–	0.353	0.386
NCI-H838	0.454	0.292	0.379	0.244	0.197	0.97	0.915	1.21	0.791	0.309	0.248	0.307	0.219	0.283	0.345
NCI-H1299	–	–	–	–	–	0.926	0.929	1.07	0.992	0.471	–	–	–	–	–
NCI-H1623	0.406	0.451	0.552	0.462	0.426	–	–	–	–	–	0.505	0.559	0.52	0.517	0.602
NCI-H1648	0.253	0.268	0.22	–	0.26	–	–	–	–	–	–	–	–	–	–
NCI-H1650	0.674	0.531	0.714	0.356	0.304	–	–	–	–	–	0.322	0.321	0.24	0.315	0.23
NCI-H1703	–	–	–	–	–	0.889	0.943	1.08	0.64	0.731	–	–	–	–	–
NCI-H2170	0.656	0.698	0.692	0.708	0.744	–	–	–	–	–	0.661	0.473	0.536	0.383	0.554
NCI-H2342	0.537	0.618	0.593	0.633	0.698	–	–	–	–	–	0.358	0.316	0.324	0.304	0.327
SW 900	0.633	0.608	0.689	0.591	0.464	–	–	–	–	–	0.497	0.543	0.417	0.543	0.326
